{"source": "patent US10463658B2", "about": "“Method of inhibiting FLT3 kinase” (AROG Pharmaceuticals, LLC, priority 2013, dated 2019)", "key": {"FLT3 non-autoinhibited": {"molecular_target": "T1, FLT3 non-autoinhibited (Homo sapiens, UniProt P36888)", "T1 construct": "host or cells: E. coli BL21-derived host (T7 phage) or HEK-293", "T1 sequence (P36888 610-943 limits assumed)": "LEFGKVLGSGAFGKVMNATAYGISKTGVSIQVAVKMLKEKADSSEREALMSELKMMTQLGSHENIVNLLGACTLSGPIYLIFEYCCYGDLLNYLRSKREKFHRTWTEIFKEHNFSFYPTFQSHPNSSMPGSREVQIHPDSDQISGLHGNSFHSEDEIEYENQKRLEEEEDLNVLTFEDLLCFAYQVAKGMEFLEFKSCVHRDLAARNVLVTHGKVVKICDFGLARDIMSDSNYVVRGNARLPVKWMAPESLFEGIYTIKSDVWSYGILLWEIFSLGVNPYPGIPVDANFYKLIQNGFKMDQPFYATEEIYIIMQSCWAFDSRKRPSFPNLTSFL", "test": "KINOMEscan KdElect competitive binding assay, non-autoinhibited FLT3", "conditions": "tosylate salt", "from_the_text": "(§1) Competitive binding assay.\n(§2) The lysates were then centrifuged and filtered."}, "FLT3 K663Q": {"molecular_target": "T2, FLT3 K663Q (Homo sapiens, UniProt P36888, K663Q)", "T2 construct": "host or cells: E. coli BL21-derived host (T7 phage) or HEK-293", "T2 sequence (P36888 610-943 K663Q limits assumed)": "T1 sequence (P36888 610-943 limits assumed) with K54Q", "test": "KINOMEscan KdElect competitive binding assay, FLT3 K663Q", "conditions": "tosylate salt; read-out: Binding Constant (Kd), FLT3 K663Q", "from_the_text": "as §1, §2"}, "FLT3 (ITD, F691I)": {"molecular_target": "T3, FLT3 (ITD, F691I) (Homo sapiens, UniProt P36888)", "T3 construct": "fused on or other part: DNA tag / T7 phage display tag for qPCR detection", "test": "KINOMEscan KdElect competitive binding assay, dual mutant FLT3 (ITD, F691I)", "conditions": "tosylate salt; read-out: Kd, FLT3 (ITD, F691I) double mutant", "from_the_text": "as §1, §2"}, "wild type FLT3": {"molecular_target": "T4, wild type FLT3 (Homo sapiens, UniProt P36888)", "T4 construct": "purchased Millipore", "T4 sequence (P36888 27-993)": "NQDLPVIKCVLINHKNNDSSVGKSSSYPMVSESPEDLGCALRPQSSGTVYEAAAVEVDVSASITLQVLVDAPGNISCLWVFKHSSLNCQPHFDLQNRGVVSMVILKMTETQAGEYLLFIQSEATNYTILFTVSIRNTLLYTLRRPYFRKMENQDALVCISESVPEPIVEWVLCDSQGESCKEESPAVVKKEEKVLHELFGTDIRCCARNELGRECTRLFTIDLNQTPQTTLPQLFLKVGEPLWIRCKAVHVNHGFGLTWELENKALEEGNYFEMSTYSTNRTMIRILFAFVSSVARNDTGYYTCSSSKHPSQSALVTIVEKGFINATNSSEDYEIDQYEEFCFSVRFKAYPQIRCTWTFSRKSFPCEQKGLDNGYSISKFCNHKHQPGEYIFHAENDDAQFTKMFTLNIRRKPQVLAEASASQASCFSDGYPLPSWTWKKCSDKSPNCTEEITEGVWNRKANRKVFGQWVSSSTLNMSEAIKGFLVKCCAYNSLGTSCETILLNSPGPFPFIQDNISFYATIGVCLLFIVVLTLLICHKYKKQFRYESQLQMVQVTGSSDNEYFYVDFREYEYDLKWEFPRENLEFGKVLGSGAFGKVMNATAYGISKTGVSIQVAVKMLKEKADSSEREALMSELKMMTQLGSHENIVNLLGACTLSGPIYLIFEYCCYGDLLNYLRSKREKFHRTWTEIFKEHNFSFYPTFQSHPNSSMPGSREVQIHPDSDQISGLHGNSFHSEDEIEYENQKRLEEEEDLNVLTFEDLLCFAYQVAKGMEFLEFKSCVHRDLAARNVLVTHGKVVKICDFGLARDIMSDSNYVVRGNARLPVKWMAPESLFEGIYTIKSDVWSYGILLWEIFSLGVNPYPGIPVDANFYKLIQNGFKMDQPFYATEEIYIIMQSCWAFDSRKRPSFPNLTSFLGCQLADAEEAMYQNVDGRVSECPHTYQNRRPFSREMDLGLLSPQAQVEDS", "test": "Direct enzyme phosphorylation assay (Millipore Kinase IC50 Profiler), wild type FLT3", "format": "biochemical", "conditions": "tosylate salt; n=2; read-out: IC50 against wild type FLT3", "procedure": "Direct enzyme phosphorylation assay. The Millipore Kinase IC50 Profiler assay was used to screen the present invention against a panel of normal FLT3 and mutated FLT3 kinases. For assays of both kinases, the FLT3 enzyme was incubated with 8 mM of 3-(N-morpholino)propanesulfonic acid (MOPS) at a pH of 7.0, 0.2 mM Ethylenediaminetetraacetic acid (EDTA), 50 uM, a synthetic Abl peptide substrate […] (SEQ ID NO: 1), 10 mM MgAcetate and [γ-^33P-ATP]. The reaction was initiated by the addition of MgATp mix. The reaction mixture was incubated for 40 minutes at room temperature and halted by the addition of 3% phosphoric acid solution. 10 uL of the reaction solution was spotted on P30 filtermat and washed three times in 75 mM phosphoric acid for 5 minutes and then once in methanol prior to drying and scintillation counting. The scintillation values for each replicate, including positive and negative controls, were analyzed using XLFit version 5.1 to determine the IC50 values for the present invention against normal and mutated FLT3."}, "[1]": {"tested_on": "Molm 13-RES-luc cells that expressed FLT3-ITD/D835Y", "test": "MTT assay in tandutinib-resistant Molm 13-RES-luc cells", "format": "cell-based", "conditions": "Homo sapiens, tandutinib resistant Molm 13 cells, mean of 3 studies with 6 replicates each (n=18), read-out: IC50 pFLT3 (text: cell viability, MTT assay)"}}, "note": "Changes are numbered by the printed parent chain."}
{"smiles": "COCCOc1ccc2c(c1)ncn2-c1ccc2cccc(N3CCC(N)CC3)c2n1", "note": "[CP-673,451]", "values": [{"measurement": "affinity shift between the non-autoinhibited and autoinhibited states of FLT3", "setting": "FLT3 non-autoinhibited", "result": "approximately 50 fold"}, {"measurement": "Kd", "setting": "FLT3 non-autoinhibited; average Kd, read-out: Binding Constant (Kd), FLT3 non-autoinhibited", "result": 0.35, "unit": "nM"}, {"measurement": "Kd", "setting": "FLT3 K663Q", "result": 0.62, "unit": "nM"}, {"measurement": "Kd", "setting": "FLT3 (ITD, F691I)", "result": 0.18, "unit": "nM"}, {"measurement": "IC50", "setting": "wild type FLT3", "result": 4, "unit": "nM"}, {"measurement": "IC50", "setting": "[1]", "result": 3.3, "unit": "nM"}]}
